Data published in patent publication US20240238445A1, “INHIBITORS AND USES THEREOF” (NEURACLE SCIENCE CO., LTD., priority 2021, published 2024).
Square brackets hold non-standard residues; d marks the D form. Ends that are not written are not given here.

Test system: hippocampal neurons co-treated with toxic Aβ oligomer
Assay: Amyloid beta-induced synapse loss in mouse primary hippocampal neurons
Format: cell-based
Conditions: 6.6 nM
Protocol: Alzheimer's disease (AD) is tightly associated with the dysmetabolism of amyloid-β (Aβ). To begin assessing whether the polypeptides provided herein (i.e., comprising the FAM19A5 binding domain of LRRC4 protein family members) could have any therapeutic effects on AD, the effect of various FB-21 peptide fragments described herein on the deformation of synapse induced by toxic Aβ oligomer and following structural recovery was assessed. Specifically, the following FB-21 peptide fragments were tested: FB-21, FB-JM-31 and FB-BBB-39 (see Example 10).
Aβ42 (#20276) peptide was purchased from AnaSpec (Fremont, USA). […]
Hippocampal neurons were treated with 6.6 nM FB-21, 6.6 nM of FB-13-JM and 6.6 nM of FB-13-BBBX2 at 14, 17 and 20 DIV to determine the level of synaptogenesis at 21 DIV by immunostaining SYP, a presynapse marker protein and PSD95, a postsynapse marker protein. To quantify fluorescence intensity for SYN and PSD95 and number of colocalized voxels between SYN and PSD95 signals, z-stack confocal images of 3 μm in depth were converted to 3D images using IMARIS software (IMARIS9.0, Bitplane AG, Zurich, Switzerland). The “Surface tool” of the IMARIS software was used to exclude all the signals detected in neuronal cell bodies, and number of colocalized voxels between SYN and PSD95 signals in neurites were calculated using the “Coloc tool”. […]

## nYTYFTTVTVETLETQPGEEALDEVMKTTKa ([dN]YTYFTTVTVETLETQPGEEALDEVMKTTK[dA]; also: terminal modifications n and a on first and last residues) [FB peptide with JM sequence]
  colocalized voxels for PSD95 and synaptophysin: significant increase in colocalized voxels
